Results as given in patent US4442106A, “Quinoline derivatives, pharmaceutical compositions containing such compounds, and methods of treating cardiovascular conditions with them” (ACF Chemiefarma N.V., priority 1980, dated 1984).
Where two headings read alike, the source gives them in different places.

What was measured:
[1] = tested on: spontaneously hypertensive rats; experiment: Effectiveness in spontaneously hypertensive rats: systolic blood pressure by tail cuff method; type: in vivo; conditions: Rattus norvegicus, read-out: Change of systolic blood-pressures
Procedure: Experiment 1-Effectiveness of the compounds of Examples in spontaneously hypertensive rats
Systolic blood pressures were recorded by a modification of the tail cuff method described by I.M. Claxton et al., Eur. J.Pharmacology 37, 179 (1976). An oscilloscope or W+W BP recorder, model 8002, was used to display pulses.
Prior to all measurements rats were placed in a heated environment (33.5±0.5° C.) before transfer to a restraining cage. Each determination of blood pressure was the mean of at least 6 readings.
Spontaneously hypertensive rats (aged 12-18 weeks) with systolic blood pressures >170 mm Hg were considered hypertensive.
In the following table the results with certain compounds of the invention, which have been carried out with the above-described method, are mentioned. The numbers of the compounds correspond with those of the Examples.

[2] = tested on: right ventricle of the heart; experiment: Guinea Pigs Electrostimulation Test (arrhythmias by electrostimulation of the right ventricle of the heart); type: in vivo; conditions: Cavia porcellus, 0.5 h, 30 minutes before stimulation, read-out: Percent increase in voltage required for arrhythmia; for change in vivo at 32 mg/kg: standard dose 32 mg/kg intraduodenal
Procedure: Experiment 2-Effectiveness of the compounds of Examples in the Guinea Pigs Electrostimulation Test
Arrhythmias are induced in guinea pigs by electrostimulation of the right ventricle of the heart. The animals are anaesthesized with urethane (1.2 g/kg i.p.) and artificially respirated before a needle electrode is inserted in the right ventricle of the heart. Substances are given intraduodinally 30 minutes before the stimulation at a standard dose of 32 mg/kg. In some cases a different dose was used as indicated.
The voltage needed for induction of extra systoles in control animals (n=6) is compared with that required for induction of arrhythmias in treated animals (n=6).
This method is based on the work of L. Szekeres and G. J. Papp, Naunyn-Schmiedebergs Arch. Exp. Path. Pharmak., 245, 70 (1963).
In the table the results of certain compounds of the invention are mentioned, which have been carried out according to the method described above.
The numbers of the compounds correspond with those of the Examples.

CC[C@H]1CN(CCCC(=O)c2ccccc2)CC[C@H]1CCC(=O)c1cc(C)nc2ccccc12 [Compound 25, N-(3-benzoylpropyl)-2'-methyl-hydrocinchonicine.bifumarate]
change in vivo at 100 mg/kg ([1]; 1 h): -16% | change in vivo at 100 mg/kg ([1]; 2 h): -25% | change in vivo at 100 mg/kg ([1]; 4 h): -9% | change in vivo at 100 mg/kg ([1]; 6 h): -5% | change in vivo at 100 mg/kg ([1]; 24 h): 2% | change in vivo at 32 mg/kg [2]: 5%

CCCCCN1CC[C@@H](CCC(=O)c2cc(C)nc3ccccc23)[C@@H](CC)C1 [Compound 27]
change in vivo at 100 mg/kg ([1]; 1 h): -1% | change in vivo at 100 mg/kg ([1]; 2 h): -13% | change in vivo at 100 mg/kg ([1]; 4 h): -28% | change in vivo at 100 mg/kg ([1]; 6 h): -16% | change in vivo at 100 mg/kg ([1]; 24 h): -3% | change in vivo at 32 mg/kg [2]: -2%

C=C[C@H]1CN(CCCC(=O)c2ccc(F)cc2)CC[C@H]1CCC(=O)c1cc(C)nc2ccccc12 [Compound 28]
change in vivo at 10 mg/kg ([1]; 1 h): -5% | change in vivo at 10 mg/kg ([1]; 2 h): -2% | change in vivo at 10 mg/kg ([1]; 4 h): -10% | change in vivo at 10 mg/kg ([1]; 6 h): -11% | change in vivo at 10 mg/kg ([1]; 24 h): 5%

CCCN1CC[C@@H](CCC(=O)c2cc(C)nc3ccc(OC)cc23)[C@@H](CC)C1 [Compound 29]
change in vivo at 100 mg/kg ([1]; 1 h): -10% | change in vivo at 100 mg/kg ([1]; 2 h): -27% | change in vivo at 100 mg/kg ([1]; 4 h): -18% | change in vivo at 100 mg/kg ([1]; 6 h): -22% | change in vivo at 100 mg/kg ([1]; 24 h): 0% | change in vivo at 16 mg/kg ([2]; intraduodenal): 9%

CCCc1cc(C(=O)CC[C@@H]2CCN(CCC)C[C@@H]2CC)c2ccccc2n1 [Compound 30, N-propyl-2'-propyl-hydrocinchonicine]
change in vivo at 8 mg/kg ([2]; intraduodenal): 60%

CCCCCN1CC[C@@H](CCC(=O)c2cc(CCC)nc3ccccc23)[C@@H](CC)C1 [Compound 31, N-pentyl-2'-propyl-hydrocinchonicine]
change in vivo at 32 mg/kg [2]: 31%

CCCc1cc(C(=O)CC[C@@H]2CCN(CCCC(=O)c3ccccc3)C[C@@H]2CC)c2ccccc2n1 [Compound 32, N-(3-benzoylpropyl)-2'-propyl-hydrocinchonicine]
change in vivo at 10 mg/kg ([1]; 1 h): -4% | change in vivo at 10 mg/kg ([1]; 2 h): -11% | change in vivo at 10 mg/kg ([1]; 4 h): -8% | change in vivo at 10 mg/kg ([1]; 6 h): -22% | change in vivo at 10 mg/kg ([1]; 24 h): -3% | change in vivo at 32 mg/kg [2]: 52%

CC[C@H]1CN(CC(C)(C)O)CC[C@H]1CCC(=O)c1cc(C(C)C)nc2ccccc12 [Compound 36, N-(2-hydroxy-2-methylpropyl)-2'-isopropylhydrocinchonicine.bioxalate]
change in vivo at 32 mg/kg [2]: 91%

CCCN1CC[C@@H](CCC(O)c2cc(C)nc3ccccc23)[C@@H](CC)C1 (stereo partly shown) [Compound 38, N-propyl-2'-methyl-hydrocinchonicinol-1]
change in vivo at 10 mg/kg ([1]; 1 h): 1% | change in vivo at 10 mg/kg ([1]; 2 h): 0% | change in vivo at 10 mg/kg ([1]; 4 h): -3% | change in vivo at 10 mg/kg ([1]; 6 h): -4% | change in vivo at 10 mg/kg ([1]; 24 h): 0% | change in vivo at 16 mg/kg ([2]; intraduodenal): 31%

CC[C@H]1CN(CCCC(=O)c2ccc(F)cc2)CC[C@H]1CCC(O)c1cc(C)nc2ccccc12 (stereo partly shown) [Compound 39, N-[3-(4-fluorobenzoyl)propyl]-2'-methyl-hydrocinchonicinol-1]
change in vivo at 1 mg/kg ([1]; 1 h): -16% | change in vivo at 1 mg/kg ([1]; 2 h): -24% | change in vivo at 1 mg/kg ([1]; 4 h): -26% | change in vivo at 1 mg/kg ([1]; 6 h): -23% | change in vivo at 1 mg/kg ([1]; 24 h): -1% | change in vivo at 32 mg/kg [2]: 5%

CCCN1CC[C@@H](CCC(O)c2cc(C)nc3ccc(OC)cc23)[C@@H](CC)C1 (stereo partly shown) [Compound 40, N-propyl-2'-methyl-hydroquinicinol-1]
change in vivo at 16 mg/kg ([2]; intraduodenal): 44%

CCCc1cc(C(O)CC[C@@H]2CCN(CCC)C[C@@H]2CC)c2cc(OC)ccc2n1 (stereo partly shown) [Compound 42, N-propyl-2'-propyl-hydroquinicinol-1]
change in vivo at 16 mg/kg ([2]; intraduodenal): 74%

CCCCCN1CC[C@@H](CCCc2cc(C)nc3ccccc23)[C@@H](CC)C1 [Compound 44, N-pentyl-2'-methyl-desoxo-hydrocinchonicine]
change in vivo at 100 mg/kg ([1]; 1 h): 2% | change in vivo at 100 mg/kg ([1]; 2 h): -15% | change in vivo at 100 mg/kg ([1]; 4 h): -30% | change in vivo at 100 mg/kg ([1]; 6 h): -43% | change in vivo at 100 mg/kg ([1]; 24 h): -6%

CC[C@H]1CN(CCCC(=O)c2ccccc2)CC[C@H]1CCCc1cc(C)nc2ccccc12 [Compound 45, N-(3-benzoylpropyl)-2'-methyl-desoxo-hydrocinchonicine]
change in vivo at 10 mg/kg ([1]; 1 h): -14% | change in vivo at 10 mg/kg ([1]; 2 h): -6% | change in vivo at 10 mg/kg ([1]; 4 h): -14% | change in vivo at 10 mg/kg ([1]; 6 h): -21% | change in vivo at 10 mg/kg ([1]; 24 h): -2%

CC[C@H]1CN(CCCC(=O)c2ccc(F)cc2)CC[C@H]1CCCc1cc(C)nc2ccccc12 [Compound 46, N-[3-(4-fluorobenzoyl)propyl]-2'-methyl-desoxo-hydrocinchonicine]
change in vivo at 10 mg/kg ([1]; 1 h): -22% | change in vivo at 10 mg/kg ([1]; 2 h): -24% | change in vivo at 10 mg/kg ([1]; 4 h): -20% | change in vivo at 10 mg/kg ([1]; 6 h): -20% | change in vivo at 10 mg/kg ([1]; 24 h): -1%

CC[C@H]1CN(CCCC(=O)c2ccc(F)cc2)CC[C@H]1CCCc1cc(C)nc2ccc(OCCC(C)C)cc12 [Compound 47, N-[3-(4-fluorobenzoyl)propyl]-2'methyl-6'-isopentoxy-oxy-desoxo-hydrocinchonicine]
change in vivo at 10 mg/kg ([1]; 1 h): -26% | change in vivo at 10 mg/kg ([1]; 2 h): -21% | change in vivo at 10 mg/kg ([1]; 4 h): -30% | change in vivo at 10 mg/kg ([1]; 6 h): -22% | change in vivo at 10 mg/kg ([1]; 24 h): 0%

CCCN1CC[C@@H](CCCc2cc(O)nc3ccccc23)[C@@H](CC)C1 [Compound 48]
change in vivo at 16 mg/kg ([2]; intraduodenal): 19%

CCCN1CC[C@@H](CCCc2cc(O)nc3ccc(OC)cc23)[C@@H](CC)C1 [Compound 49]
change in vivo at 16 mg/kg ([2]; intraduodenal): 21%

CC[C@H]1CN(CCCC(=O)c2ccc(F)cc2)CC[C@H]1CCCc1cc(C(F)(F)F)nc2ccccc12 [Compound 50]
change in vivo at 10 mg/kg ([1]; 1 h): -4% | change in vivo at 10 mg/kg ([1]; 2 h): -16% | change in vivo at 10 mg/kg ([1]; 4 h): -16% | change in vivo at 10 mg/kg ([1]; 6 h): -13%

CC[C@H]1CN(C)CC[C@H]1CCC(=O)c1cc(OC)nc2ccccc12 [Compound 52, 2'-Methoxy-N-methyl-hydrocinchonicine.bioxalate]
change in vivo at 8 mg/kg ([2]; intraduodenal): 25%

CC[C@H]1CN(CCCC(c2ccc(F)cc2)c2ccc(F)cc2)CC[C@H]1CC(O)Cc1cc(OC)nc2ccccc12 (stereo partly shown) [Compound 55]
change in vivo at 10 mg/kg ([1]; 1 h): -11% | change in vivo at 10 mg/kg ([1]; 2 h): -5% | change in vivo at 10 mg/kg ([1]; 4 h): -7% | change in vivo at 10 mg/kg ([1]; 6 h): -10% | change in vivo at 10 mg/kg ([1]; 24 h): -2%

CCCN1CC[C@@H](CC(O)Cc2cc(OC)nc3ccc(OC)cc23)[C@@H](CC)C1 (stereo partly shown) [Compound 56]
change in vivo at 20 mg/kg ([2]; at 20 mg/kg, intraduodenal): 112%

CCCN1CC[C@@H](CC(O)Cc2cc(C(F)(F)F)nc3ccccc23)[C@@H](CC)C1 (stereo partly shown) [Compound 58, N-propyl-2'-trifluoromethyl-hydrocinchonicinol-2]
change in vivo at 10 mg/kg ([2]; at 10 mg/kg, intraduodenal): 133%

CCCN1CC[C@@H](CC(O)Cc2cc(C(F)(F)F)nc3ccccc23)[C@@H](CC)C1 (stereo partly drawn) [Compound 59, 1-(2-trifluoromethyl-4-quinolyl)-3-[3(R)-ethyl-N-propyl-4(S)-piperidyl]-propanol-2]
change in vivo at 4 mg/kg ([2]; at 4 mg/kg, intraduodenal): 55%

CCCN1CC[C@@H](CC(O)Cc2cc(C(F)(F)F)nc3ccccc23)[C@@H](CC)C1 (stereo partly shown) [Compound 60, N-propyl-2'-trifluoromethyl-hydrocinchonicinol-2]
change in vivo at 8 mg/kg ([2]; intraduodenal): 137%

CCCCCN1CC[C@@H](CC(=O)Cc2cc(C(F)(F)F)nc3ccccc23)[C@@H](CC)C1 [Compound 64, 1-(2-Trifluoromethyl-4-quinolyl)-3-[3(R)-ethyl-N-pentyl-4(S)-piperidyl]-propanone-2.bifumarate]
change in vivo at 100 mg/kg ([1]; 1 h): -5% | change in vivo at 100 mg/kg ([1]; 2 h): -23% | change in vivo at 100 mg/kg ([1]; 4 h): -17% | change in vivo at 100 mg/kg ([1]; 6 h): -13% | change in vivo at 100 mg/kg ([1]; 24 h): -8%

CC[C@H]1CN(CC(C)(C)O)CC[C@H]1CCC(=NOC)c1cc(C)nc2ccccc12 [Compound 66, N-(2-Hydroxy-2-methylpropyl)-2'-methyl-hydrocinchonicine-O-methyl oxime ether.bioxalate]
change in vivo at 16 mg/kg ([2]; intraduodenal): 43%
